Test [1] relates to mice. As to the kind of experiment: Body temperature. The class given is in vivo, mouse.
The subject of test [2] is mice. As to the kind of experiment: Indirect calorimetry. It counts as in vivo, mouse. The conditions noted are these: C57BL/6J mice, 100 mg/kg, i.p.
For test [3], the system named is mice. As to the kind of experiment: Temperature gradient. The class given is in vivo, mouse.
The conditions of test [4]: 500–3500 mg/kg, i.p.; ref Zhang et al, 2006; cited from earlier work.
The target of test [5] is T1, mouse A1AR (Mus musculus, UniProt Q60612).
T1 sequence (Q60612 1-326): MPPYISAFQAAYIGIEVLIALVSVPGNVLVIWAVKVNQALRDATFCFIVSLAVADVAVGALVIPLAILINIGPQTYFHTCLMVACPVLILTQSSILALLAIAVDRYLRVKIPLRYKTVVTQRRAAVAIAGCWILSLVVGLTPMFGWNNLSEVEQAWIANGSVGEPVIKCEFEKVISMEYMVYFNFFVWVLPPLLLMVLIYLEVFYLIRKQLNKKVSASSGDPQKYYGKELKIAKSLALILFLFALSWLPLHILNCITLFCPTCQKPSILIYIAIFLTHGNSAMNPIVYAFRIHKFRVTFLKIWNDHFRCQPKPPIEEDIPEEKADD
As to conditions: read-out: Ki, mouse A1AR, cited from earlier work.

Test [6] deals with T2, mouse A3AR (Mus musculus, UniProt Q61618).
T2 sequence (Q61618 1-319): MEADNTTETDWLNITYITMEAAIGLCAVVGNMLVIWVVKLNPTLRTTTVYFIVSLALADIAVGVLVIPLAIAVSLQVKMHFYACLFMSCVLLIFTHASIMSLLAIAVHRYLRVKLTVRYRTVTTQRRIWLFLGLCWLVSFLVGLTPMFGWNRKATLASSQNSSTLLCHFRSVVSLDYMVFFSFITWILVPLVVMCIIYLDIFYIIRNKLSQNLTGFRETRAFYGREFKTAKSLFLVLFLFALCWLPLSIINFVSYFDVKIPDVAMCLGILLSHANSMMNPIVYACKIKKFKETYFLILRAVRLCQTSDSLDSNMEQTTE
As to conditions: cited from earlier work.

The target in test [7] is T1, mouse A1AR. As to the kind of experiment: Radioligand binding, recombinant mouse A1AR in HEK-293 membranes.
In test [8] the target is T2, mouse A3AR. As to the kind of experiment: Radioligand binding, recombinant mouse A3AR in HEK-293 membranes.
Test [9] addresses T3, mouse A2AAR (Mus musculus, UniProt Q60613). The conditions noted are these: read-out: Ki, mouse A2AAR, 2006, cited from earlier work.
Test [10] concerns the target T4, Human A2AAR (Homo sapiens, UniProt P29274). The conditions noted are these: read-out: Ki, human A2AAR; ref Tosh et al, 2012b; cited from earlier work.
Test [11] concerns the target T3, mouse A2AAR. As to the kind of experiment: Radioligand binding, recombinant mouse A2AAR in HEK-293 membranes. As to conditions: read-out: % inhibition at 10 µM, mouse A2AAR.
Test [12] concerns the target T5, Human A1AR (Homo sapiens, UniProt P30542).
T5 sequence (P30542 1-326): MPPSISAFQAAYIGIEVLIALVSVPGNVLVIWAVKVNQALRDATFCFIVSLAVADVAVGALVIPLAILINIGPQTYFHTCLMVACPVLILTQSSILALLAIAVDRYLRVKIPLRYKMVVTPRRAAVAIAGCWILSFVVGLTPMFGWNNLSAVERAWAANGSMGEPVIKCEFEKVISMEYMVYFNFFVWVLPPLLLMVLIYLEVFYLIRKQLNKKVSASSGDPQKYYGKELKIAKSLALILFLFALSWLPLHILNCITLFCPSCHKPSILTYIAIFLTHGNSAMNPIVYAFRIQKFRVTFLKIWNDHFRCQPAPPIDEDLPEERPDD
Description: Ligand binding affinity at human A1AR.

In test [13] the target is T4, Human A2AAR. As to the kind of experiment: Ligand binding affinity at human A2AAR.
Test [14] concerns the target T6, Human A3AR (Homo sapiens, UniProt P0DMS8).
T6 sequence (P0DMS8 1-318): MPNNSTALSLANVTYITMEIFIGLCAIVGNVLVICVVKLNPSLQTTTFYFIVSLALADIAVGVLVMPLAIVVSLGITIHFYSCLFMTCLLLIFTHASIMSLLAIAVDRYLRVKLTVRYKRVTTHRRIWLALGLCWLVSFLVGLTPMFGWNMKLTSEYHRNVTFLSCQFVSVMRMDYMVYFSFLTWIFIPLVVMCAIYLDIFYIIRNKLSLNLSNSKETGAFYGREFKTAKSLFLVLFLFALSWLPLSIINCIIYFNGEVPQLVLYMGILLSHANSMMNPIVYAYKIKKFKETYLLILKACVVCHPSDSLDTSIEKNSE
Description: Ligand binding affinity at human A3AR.

The mark [15] stands for this setting: C57BL/6J mice, 100 µg/mouse (~3.3 mg/kg), i.c.v.
Setting [16] is: C57BL/6J mice, 0.02–0.2 mg/kg, i.p., dose-dependent.
Setting [17] is: C57BL/6J mice, 0.03–3 mg/kg, i.p.

Molecules are shown by their SMILES. Read-outs that look alike come from different tables or passages of the source.

T3 sequence (Q60613 whole entry): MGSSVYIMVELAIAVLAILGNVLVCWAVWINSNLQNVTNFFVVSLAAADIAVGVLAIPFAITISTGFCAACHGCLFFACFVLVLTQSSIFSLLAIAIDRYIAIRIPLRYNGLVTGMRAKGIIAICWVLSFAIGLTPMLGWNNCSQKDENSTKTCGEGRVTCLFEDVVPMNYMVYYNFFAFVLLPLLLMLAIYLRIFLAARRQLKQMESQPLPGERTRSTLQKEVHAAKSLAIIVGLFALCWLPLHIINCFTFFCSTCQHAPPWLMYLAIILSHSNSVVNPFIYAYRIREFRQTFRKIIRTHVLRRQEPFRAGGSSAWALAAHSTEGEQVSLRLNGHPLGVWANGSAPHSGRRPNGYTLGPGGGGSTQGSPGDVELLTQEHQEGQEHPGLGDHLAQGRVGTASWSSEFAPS
T4 sequence (P29274 whole entry): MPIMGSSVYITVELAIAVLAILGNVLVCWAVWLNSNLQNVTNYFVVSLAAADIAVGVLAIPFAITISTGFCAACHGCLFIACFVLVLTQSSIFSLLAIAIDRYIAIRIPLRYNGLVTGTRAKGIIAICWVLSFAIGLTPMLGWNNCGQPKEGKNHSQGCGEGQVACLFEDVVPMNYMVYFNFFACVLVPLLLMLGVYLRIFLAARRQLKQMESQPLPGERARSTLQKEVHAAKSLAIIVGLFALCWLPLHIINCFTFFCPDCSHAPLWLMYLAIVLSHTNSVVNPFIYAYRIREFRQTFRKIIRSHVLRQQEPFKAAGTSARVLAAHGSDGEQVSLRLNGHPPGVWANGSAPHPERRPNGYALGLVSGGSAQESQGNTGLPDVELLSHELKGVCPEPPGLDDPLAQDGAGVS

As to `Nc1ncnc2c1ncn2[C@@H]1O[C@H](COP(=O)(O)O)[C@@H](O)[C@H]1O` [AMP, adenosine 5'-monophosphate], in test [1] (100 µg/mouse (~3.3 mg/kg), i.c.v.), the “Hypothermia from i.c.v. dosing in Adora1−/− mice” value is recorded as “not attenuated”. Also, in test [1] (100 mg/kg, i.p.), the “Hypothermia in Adora1−/− mice” value is on record as “intact”, the “Hypothermia in Adora1−/−;Adora3−/− double knockout mice” value is “intact”, the “Hypothermia in Adora3−/− mice” value was “intact” and the “Hypothermia in Kit W-sh/W-sh mice” value is “partially intact”. The “Hypothermia after pretreatment with raclopride” value in test [1] (AMP 100 mg/kg, i.p., raclopride 2 mg/kg, data not shown) is reported as “did not block”. Moreover, the “Hypothermia after pretreatment with pyrilamine” value in test [1] (Adora1−/− mice, AMP 100 mg/kg, i.p., pyrilamine 10 mg/kg, data not shown) is listed as “did not ablate”. Moreover, the “Effect on Tb, i.c.v. infusion” value in test [1] (setting [15]) is recorded as “drop in Tb that was comparable to a 30-fold larger (100 mg/kg) systemic dose”. Moreover, in [2], the “Effect on metabolic rate (total energy expenditure)” value was “drop in metabolic rate that preceded the hypothermia”, the “Time of TEE nadir” value was ~ 40 min and the “Time of Tb nadir” value is given as ~ 60 min. Moreover, in test [3] (100 mg/kg, i.p., not shown), the Ambient temperature preference result is “did not observe a clear change”. The “Activity in thermal gradient” value in [3] (setting [15]) is on record as “without a significant drop in activity”. In test [3] (C57BL/6J mice, 300 mg/kg, i.p.), the “Activity in thermal gradient” value was “became immobile” and the “Position in thermal gradient” value is on record as “moved to a cooler region”. Further, the “Torpor induction by large doses” value in test [4] is given as “induce torpor”.

Turning to `OC[C@H]1O[C@@H](n2cnc3c(NC4CCCC4)nc(Cl)nc32)[C@H](O)[C@@H]1O` [CCPA, 2-chloro-N^6-cyclopentyladenosine], the Ki in test [5] (ref Alnouri et al, 2015) was 0.27 nM; in test [6] (read-out: Ki, mouse A3AR, ref Alnouri et al, 2015), 16 nM.

As to `CCNC(=O)[C@H]1O[C@@H](n2cnc3c(N)nc(NCCc4ccc(CCC(=O)O)cc4)nc32)[C@H](O)[C@@H]1O` [CGS21680], the Ki came to 193 ± 38 nM in test [7] and 48 ± 11 nM in test [8].

For `OC[C@H]1O[C@@H](n2cnc3c(NC4CCCCC4)ncnc32)[C@H](O)[C@@H]1O` [CHA, N^6-cyclohexyladenosine], the Ki in test [7] was 2.15 ± 0.37 nM. In test [1] (0.05 mg/kg, i.p.), the “Hypothermia in Adora1−/− mice vs wild type” value is reported as “attenuated”, the “Hypothermia in Adora1−/−;Adora3−/− double knockout mice” value is “completely lost” and the “Hypothermia in Adora3−/− mice vs wild type” value is “attenuated”. Further, in test [1] (setting [16]), the “Effect on Tb” value was “drop in Tb”, the “Effect on duration of hypothermia” value is recorded as “increase in duration of hypothermia” and the “Effect on physical activity” value is “reduced physical activity”.

Consider `OC[C@H]1O[C@@H](n2cnc3c(NC4CCCC4)ncnc32)[C@H](O)[C@@H]1O` [CPA, N^6-cyclopentyladenosine], for which, in test [1] (0.3 mg/kg, i.p.), the “Hypothermia in Adora1−/− mice vs wild type” value was “not significantly attenuated” and the “Hypothermia in Adora3−/− mice vs wild type” value is “attenuated but still present”. Also, in test [1] (setting [17]), the “Effect on Tb” value is given as “dose-dependent (0.03–3 mg/kg, i.p.) hypothermia” and the “Effect on physical activity” value is “reduction in physical activity”.

With `CNC(=O)[C@H]1O[C@@H](n2cnc3c(NCc4cccc(I)c4)nc(Cl)nc32)[C@H](O)[C@@H]1O` [Cl-IB-MECA, 2-chloro-N6-(3-iodobenzyl)adenosine-5'-N-methylcarboxamide], in test [9] (ref Ge et al), the Ki is about 10000 nM.

With `CCCn1c(=O)c2[nH]c(C3CCCC3)nc2n(CCC)c1=O` [DPCPX], the Ki in test [5] (ref Kreckler et al, 2006) was 1.5 nM; in test [9] (ref Kreckler et al), 598 nM. The “% inhibition at 10 µM, mouse A3AR” value in test [6] (10 µM, ref Kreckler et al, 2006) was 0%.

`CNC(=O)[C@H]1O[C@@H](n2cnc3c(NCc4cccc(I)c4)ncnc32)[C@H](O)[C@@H]1O` [IB-MECA]: the Ki in [9] (ref Ge et al) was about 1000 nM.

On to `O[C@@H]1[C@@H]2C[C@@H]2C(n2cnc3c(NC(C4CC4)C4CC4)nc(Cl)nc32)[C@@H]1O` (stereo partly drawn) [MRS5474, (1R,2R,3S,5S)-4-(2-chloro-6-((dicyclopropylmethyl)amino)-9H-purin-9-yl)bicyclo[3.1.0]hexane-2,3-diol], for which the “Receptor mediating hypothermia (Adora1−/− and Adora3−/− mice)” value in [1] (3 mg/kg, i.p.) is “via A3AR, without a clear contribution from A1AR”. Moreover, the “Hypothermia after pretreatment with raclopride” value in test [1] (3 mg/kg, i.p., raclopride 1 mg/kg, data not shown) was “not inhibited”. Besides, the “Effect on Tb” value in test [1] (mice, doses in Fig. S2A,B) is reported as “dose-dependent hypothermia”. In test [1] (mice, doses in Fig. S2A,B and data not shown), the “Effect on physical activity” value is listed as “hypoactivity”. Further, the Ki in test [10] is 3950 nM.

Turning to `COc1ccc(CN(CCN(C)C)c2ccccn2)cc1` [Pyrilamine, pyrilamine], the “Effect of H1R antagonist on MRS5474-induced hypothermia” value in test [1] (MRS5474 at dose selective for A3AR, inhibitor dosed 15 min before agonist) is “inhibited hypothermia”. For the same compound, the “Effect of H1R antagonist on A1AR agonist-induced hypothermia” value in test [1] (inhibitor dosed 15 min before agonist, Fig. S4A–D) is listed as “did not block”.

Regarding `O=S(=O)(O)c1ccc(Nc2ncnc3c2ncn3[C@@H]2O[C@H](CO)[C@@H](O)[C@H]2O)cc1` [SPA, N^6-(p-sulfo-phenyl)adenosine], the Ki in [7] was 1.08 ± 0.04 nM; in test [8] it was 3110 ± 183 nM; in [12] it was 7.92 ± 1.55 nM; in test [13], 3780 ± 890 nM; in test [14] it was 246 ± 21 nM. Also, in [7] (from Table 1 Ki values), the “Selectivity for binding to mouse A1AR over A3AR” value is reported as ~ 3000 fold. Also, the inhibition at 10 µM in test [11] turned out to be 33 ± 2%.

For orientation: Ki means the dissociation constant of the complex between target and ligand, obtained from inhibition or displacement. For orientation: % inhibition means the relative decrease from the control value, in per cent. As usually defined, the inhibition is the change of the read-out against control, counted positive when it falls.

(Values after PMC5183552 (Neuropharmacology, 2016).)
